Assay results taken from patent publication US5120828A, “Synthetic polypeptide with laminin activity” (Regents of the University of Minnesota, priority 1989, dated 1992).

Biological target: T1, peptide AC15 (Mus musculus, UniProt P02469)
T1 construct: residues 202-218 from the B1 chain of laminin; The single letter amino acid code for this polypeptide is RIQNLLKITNLRIKFVK; made in house; host or cells: chemical solid-phase (Merrifield) synthesis, no expression host
Experiment: Heparin/peptide interaction specificity: competition of 3H-heparin binding to coated peptide AC15 by glycosaminoglycans
Conditions: 3 μg per well of peptide AC15 coated; various amounts of non-radioactive glycosaminoglycan; 2 h, 37° C.; FIG. 9
Method: To check whether charge was the main factor in the interaction between heparin and peptide AC15 or whether the heparin structure was also critical to this interaction, heparin along with one other sulfated glucosaminoglycan, chondroitin sulfate were used in competition experiments. A standard amount of 3 μg per well of peptide AC15 was coated on 96-well plates as described above. Wells were treated for two hours with 2 mg/ml BSA in wash buffer. Then, a final volume of 50 μl was added to each well, containing a standard amount of ^3 H-heparin (5,000 cpm per well) and various amounts of non-radioactive heparin, and chondroitin sulfate. After incubating for two hours at 37° C., the wells were washed and radioactivity was counted as described above in Example 1.

| Substance | competition for the binding of tritiated heparin to peptide AC15 |
| --- | --- |
| heparin | able to compete for the binding of tritiated heparin to peptide AC15 at very low concentrations |
| chondroitin sulfate | cannot mimic this effect even at very high concentrations |
